Four compounds from patent US9598434B2, “Benzazepine compound” (Astellas Pharma Inc., priority 2010, dated 2017) can be followed below.

The target in one data set is T1, human 5-HT2C receptor (Homo sapiens, UniProt P28335).
T1 construct: expressed in transfected cells
T1 sequence (P28335 33-458): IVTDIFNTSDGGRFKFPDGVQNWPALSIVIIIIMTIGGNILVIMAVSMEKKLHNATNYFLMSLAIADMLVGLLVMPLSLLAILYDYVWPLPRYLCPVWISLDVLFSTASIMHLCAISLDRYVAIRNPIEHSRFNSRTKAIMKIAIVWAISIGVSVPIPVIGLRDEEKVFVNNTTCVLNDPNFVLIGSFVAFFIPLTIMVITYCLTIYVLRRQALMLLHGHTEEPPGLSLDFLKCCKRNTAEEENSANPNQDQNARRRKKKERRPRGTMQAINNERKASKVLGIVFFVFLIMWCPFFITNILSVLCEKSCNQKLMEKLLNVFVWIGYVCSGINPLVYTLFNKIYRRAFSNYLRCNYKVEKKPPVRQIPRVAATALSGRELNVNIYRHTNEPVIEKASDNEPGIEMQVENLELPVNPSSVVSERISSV
Nature of the data set: Evaluation of 5-HT2C receptor agonist activity (intracellular calcium increase, FLIPR, CHO cells stably expressing the receptor). The conditions noted are these: for EC50: CHO cells stably expressing INI type human 5-HT2C receptor, intracellular Ca increase, logistic regression, read-out: 5-HT2C agonist activity EC50; for Emax: CHO, read-out: 5-HT2C agonist activity Emax. In kind it is cell-based. How it is done: The agonist activity of the compound of the formula (I) on the 5-HT2C receptor was confirmed by the method shown below.
The human 5-HT2C receptor agonist activity was evaluated by measuring the increase of the ligand-dependent intracellular calcium concentration. CHO cells which stably expressing a human 5-HT2C receptor were used. The receptor-expressing cells were prepared by transfecting the genes of the human 5-HT2C receptor (Accession numbers: AF498983 (5-HT2C)) into CHO cells (dihydrofolic acid-deficient strain, DS Pharma Biomedical Co., Ltd.)) using a pEF-BOS vector (Nucleic Acids Research, vol. 18, No. 17). After transcription, the 5-HT2C is known to be subjected to RNA editing to cause differences in three kinds of amino acids, resulting in fourteen receptor isoforms. Among them, cells stably expressing an INI type of 5-HT2C receptor which had not been subjected to editing were used. Cells used for evaluation were cultured in a 10% fetal bovine serum (FBS)-containing medium (trade name: α-MEM, Invitrogen) at 37° C. and 5% carbon dioxide. On the day before the evaluation, the cells were suspended in a serum-free medium (trade name: CD-CHO, Invitrogen) containing 8 mM L-glutamine (trade name: L-glutamine 200 mM, Invitrogen, added to the medium at a final concentration of 8 mM) and dispensed into a 96-well poly-D-lysine-coated plate (trade name: Biocoat PDL96W Black/Clear, Japan Becton, Dickinson and Company)) at 4×10^4 cells/well and cultured at 37° C. and 5% carbon dioxide overnight. A solution including a washing solution (mixture of Hank's Balanced Salt Solution (HBSS)-sodium hydroxide (NaOH), 20 mM 2-[4-(2-hydroxyethyl)-1-piperazinyl]ethanesulfonic acid (HEPES)-sodium hydroxide (NaOH), 2.5 mM probenecid, and 0.1% bovine serum albumin (BSA)), and a 4 μM fluorescent reagent (trade name: Fluo4-AM, Dojindo Co., Ltd.) was used as a loading buffer and the medium of the 96-well plate which had been cultured overnight was replaced with a loading buffer. After leaving to stand (with light-shielding) at room temperature for 3 hours, the cells were washed with a plate washer (trade name: ELx405, BioTek Instruments, Inc.) in which a washing solution had been set up. The plates of the washed cells were set up in a system for measuring a calcium (Ca) concentration in a cell (trade name: FLIPR, Molecular Devices, Inc.). In this device, a test compound that had been dissolved in dimethyl sulfoxide and diluted in the washing solution at a predetermined concentration was added and set up to measure a change in the Ca concentrations in a cell. The difference between a maximum value and a minimum value in the change of the intracellular Ca concentration was determined and kept as measurement data.
Taking the maximum reaction of the 5-HT (agonist action with addition of 5-HT 10 μM) as 100% and the reaction of a solvent alone as 0%, the efficacy (Emax (%)) and potency (EC50 (nM)) of the present invention compound to the maximum reaction of the 5-HT were calculated with a logistic regression method.
On the technique in general: Calcium flux is commonly read through the fluorescence of an indicator in the cells.

Data set [1] has as its system Hartley female guinea pigs. Nature of the data set: Measurement of external urethral sphincter electromyography. In kind it is in vivo, guinea pig. Conditions: Cavia porcellus; intravenous administration at 3 mg/kg; urethane-anesthetized guinea pigs; activity after solvent taken as 100%; read-out: external urethral sphincter electromyography activity. An excerpt: The activating action of the compound of the formula (I) on the urethral sphincter electromyography was confirmed with the method shown below.
Hartley female guinea pigs with a body weight of 250 to 350 g were anesthetized with urethane (Sigma). The guinea pigs were fixed in a supine position and catheters (PE-50; Clay Adams) for administration of test compounds were inserted into the jugular vein. Further, a catheters (PE-160; Clay Adams), for an infusion of physiological saline into bladder and measurement of the intravesical pressure, were inserted through an incision into the dome of the bladder. Further, in order to measure the external urethral sphincter electromyography, two electrodes were inserted into both the left and right sides of the urethral opening to the urethral sphincter. The electrodes for measuring base voltages were placed under the skin of the hind part. The bladder catheter was branched over a three-way stopcock, and one was connected with a 50 mL syringe (Terumo) fixed to an infusion pump (Terumo). The other was connected to a pressure transducer (DX-100; Nihon Kohden Corporation) to transfer the signal of the transducer through an amplifier (AP-630G; Nihon Kohden Corporation) and a data acquisition system (PowerLab; AD Instruments) to a computer and record on a hard disk. The electrodes for electromyography measurement were connected to a control unit (JB-101J; Nihon Kohden Corporation) to transfer the signal through an amplifier (AP-651J; Nihon Kohden Corporation) and a data acquisition system (PowerLab; AD Instruments) to a computer and record on a hard disk. Further, the data were analyzed on the computer using a software (Chart; AD Instruments). […] The electromyography activity was analyzed by taking the lowest potential amplitude as a standard during the stabilization period and using the firing frequency over the standard amplitude as an indicator. At internals between the respective urinations (urine filling phase), the activity of the urethral sphincter electromyography was analyzed and its average value was calculated. After the stabilization period, the solvent and the test compound were administered at an increased dose at an interval of 40 minutes through the catheter placed into the jugular vein. The urethral sphincter electromyography activity after the administration of the solvent was taken as 100% and the urethral sphincter electromyography activity after the administration of the test compound was denoted as a percentage (%) of the electromyography activity after the administration of the solvent.

Some results are limits rather than exact numbers.

`Fc1ccc(Cl)cc1CN1CCOc2cc3c(c(C4CC4)c21)CCNCC3.O=C(O)/C=C/C(=O)O` [Example 290] registered a melting point of 165 to 168 °C. For the same compound, at human 5-HT2C receptor, the EC50 turned out to be 3.8 nM and the Emax came out at 93%. Moreover, in data set [1], the response vs control in vivo at 3 mg/kg is ≥ 200%.
For the compound `O=C(O)/C=C/C(=O)O.c1cc2c(cc1CN1CCOc3cc4c(c(C5CC5)c31)CCNCC4)OCCO2` [Example 291], the melting point lay in the range of 165 to 168 °C. Further, on human 5-HT2C receptor, the EC50 is 1.2 nM and the maximal response (Emax) stood at 93%. Besides, the response vs control in vivo at 3 mg/kg in data set [1] is ≥ 200%.
`Fc1cc(F)cc(CN2CCOc3cc4c(c(C5CC5)c32)CCNCC4)c1.O=C(O)/C=C/C(=O)O` [Example 313] showed a melting point of 191 to 194 °C. Further, on human 5-HT2C receptor, the EC50 worked out at 4.2 nM and the maximum response (Emax) came to 97%. The response vs control in vivo at 3 mg/kg in data set [1] is ≥ 200%.
Consider `CCO[C@H](C)CN1CCOc2cc3c(c(C4CC4)c21)CCNCC3.O=C(O)/C=C/C(=O)O` [Example 315], for which the melting point is 157 to 160 °C. In addition, on human 5-HT2C receptor, the EC50 came out at 2.8 nM and the Emax is 108%. Moreover, the response vs control in vivo at 3 mg/kg in data set [1] is ≥ 200%.

Usually EC50 stands for the midpoint of the concentration-response curve. Usually Emax stands for the greatest response seen or fitted, relative to the assay's reference. By melting point is commonly meant the temperature of the solid-liquid transition.
